Data on 5 molecules can be found in article PMC2706954, “Dissecting Structural and Functional Diversity of the Lantibiotic Mersacidin” (Chemistry & Biology, 2009).

In one test the test system is S. aureus SH1000. The format is cell-based, Staphylococcus aureus. As to the method:
(§1) Antibacterial activity of fermentation samples or purified samples was determined by Mueller-Hinton Agar diffusion bioassays using M. luteus ATCC 4698 as the indicator strain. Susceptibility testing (minimum inhibitory concentration [MIC]) for all aerobic organisms, with the exception of S. pneumoniae, was performed following the recommendations of CLSI. Susceptibility testing of S. pneumoniae was performed by two-fold serial dilutions in brain-heart-infusion broth supplemented with 50 μg/ml Ca^2+. Vancomycin was used as a reference antibiotic, and plates were incubated aerobically, with shaking, for 18–20 hr at 37°C with the MIC defined as the lowest concentration of drug that prevented visible growth.

In another test the test system is S. aureus R33 MRSA. The format is cell-based, Staphylococcus aureus. On the procedure:
as §1

For a further test, the system named is M. luteus ATCC4698. The format is cell-based, Micrococcus luteus. On the procedure: as §1
Another test concerns S. pneumoniae BAA-255. Format: cell-based, Streptococcus pneumoniae. On the procedure:
as §1

For a further test, the system named is E. faecium 7131121 VRE. Format: cell-based. As to the method: as §1
Another test deals with E. faecalis ATCC29212. The format is cell-based. As to the method:
as §1

The subject of a further test is S. epidermidis NCTC11047. The format is cell-based. As to the method:
as §1

In a further test the test system is E. faecium ATCC19579. The format is cell-based. On the procedure: as §1
[1] abbreviates: CLSI recommendations, incubated aerobically with shaking 18–20 hr at 37°C, MIC = lowest concentration preventing visible growth, purified variants.

Values after ≈ are worked out from the molar mass of the structure shown. Values joined by “and” are separate entries in the source; they are usually repeats but may differ in a detail not shown here. Equal values may be shown once. Read-outs that look alike come from different tables or passages of the source.

In the case of `C=C1NC(=O)C2NC(=O)[C@H](CC(C)C)NC(=O)C(NC(=O)[C@@H]3CSC(C)C(NC(=O)[C@H](Cc4ccccc4)NC(=O)C4NC(=O)[C@@H](N)CSC4C)C(=O)N[C@@H](CC(C)C)C(=O)N4CCC[C@H]4C(=O)NCC(=O)NCC(=O)N[C@@H](C)C(=O)NCC(=O)N[C@@H](C(C)C)C(=O)N3)C(C)SC[C@H](NC(=O)[C@H](CCC(=O)O)NC1=O)C(=O)N[C@@H]([C@@H](C)CC)C(=O)NC=CSC2C` (stereo partly drawn) [G9A], the “MIC S. aureus SH1000” value in the test on S. aureus SH1000 (SH1000) is 32 µg/mL (≈ 17.4 µM). Besides, the “MIC S. aureus R33 MRSA” value against S. aureus R33 MRSA (R33) was 8 µg/mL (≈ 4.35 µM). Also, in the test with M. luteus ATCC4698 (ATCC4698), the “MIC M. luteus ATCC4698” value is below 4 µg/mL. Besides, the “MIC S. pneumoniae BAA-255” value against S. pneumoniae BAA-255 (BAA-255) was 8 µg/mL (≈ 4.35 µM). The “MIC E. faecium 7131121 VRE” value against E. faecium 7131121 VRE (7131121 VRE) was above 64 µg/mL. Also, in the test on E. faecalis ATCC29212 (ATCC29212), the “MIC E. faecalis ATCC29212” value is above 64 µg/mL. In addition, in the test with S. epidermidis NCTC11047 (NCTC11047), the “MIC S. epidermidis NCTC11047” value turned out to be 32 µg/mL (≈ 17.4 µM). The “MIC E. faecium ATCC19579” value in the test with E. faecium ATCC19579 (ATCC19579) was determined as 64 µg/mL (≈ 34.8 µM).
Consider `CC=C1NC(=O)C2NC(=O)[C@H](CC(C)C)NC(=O)C(NC(=O)[C@@H]3CSC(C)C(NC(=O)[C@H](Cc4ccccc4)NC(=O)C4NC(=O)[C@@H](N)CSC4C)C(=O)N[C@@H](CC(C)C)C(=O)N4CCC[C@H]4C(=O)NCC(=O)NCC(=O)NCC(=O)NCC(=O)N[C@@H](C(C)C)C(=O)N3)C(C)SC[C@H](NC(=O)[C@H](CCC(=O)O)NC1=O)C(=O)N[C@@H]([C@@H](C)CC)C(=O)NC=CSC2C` (stereo partly drawn) [S16Db], for which, in the test with S. aureus SH1000 (SH1000), the “MIC S. aureus SH1000” value stood at 32 µg/mL (≈ 17.4 µM). In addition, in the test on S. aureus R33 MRSA (R33), the “MIC S. aureus R33 MRSA” value came out at 8 µg/mL (≈ 4.35 µM). For the same molecule, the “MIC M. luteus ATCC4698” value against M. luteus ATCC4698 (ATCC4698) amounted to 1 µg/mL (≈ 0.543 µM). The “MIC S. pneumoniae BAA-255” value against S. pneumoniae BAA-255 (BAA-255) was 32 µg/mL (≈ 17.4 µM). In the test on E. faecium 7131121 VRE (7131121 VRE), the “MIC E. faecium 7131121 VRE” value was found to be 64 µg/mL (≈ 34.8 µM). Also, in the test with E. faecalis ATCC29212 (ATCC29212), the “MIC E. faecalis ATCC29212” value came out at 32 µg/mL (≈ 17.4 µM). The “MIC S. epidermidis NCTC11047” value against S. epidermidis NCTC11047 (NCTC11047) came to 16 µg/mL (≈ 8.69 µM). Also, the “MIC E. faecium ATCC19579” value against E. faecium ATCC19579 (ATCC19579) stood at 32 µg/mL (≈ 17.4 µM).
`C=C1NC(=O)C2NC(=O)[C@H](CC(C)C)NC(=O)C(NC(=O)[C@@H]3CSC(C)C(NC(=O)[C@H](Cc4ccccc4)NC(=O)C4NC(=O)[C@@H](N)CSC4C)C(=O)N[C@@H](CC(C)C)C(=O)N4CCC[C@H]4C(=O)NCC(=O)N[C@@H](CC(N)=O)C(=O)NCC(=O)NCC(=O)N[C@@H](C(C)C)C(=O)N3)C(C)SC[C@H](NC(=O)[C@H](CCC(=O)O)NC1=O)C(=O)N[C@@H]([C@@H](C)CC)C(=O)NC=CSC2C` (stereo partly drawn) [G8N]: the “MIC S. aureus SH1000” value in the test on S. aureus SH1000 (setting [1]) was above 64 µg/mL. Besides, the “MIC S. aureus R33 MRSA” value in the test on S. aureus R33 MRSA (setting [1]) was 16 µg/mL and 32 µg/mL. Besides, in the test with M. luteus ATCC4698 (setting [1]), the “MIC M. luteus ATCC4698” value stood at 8 µg/mL (≈ 4.25 µM). Also, the “MIC S. pneumoniae BAA-255” value in the test with S. pneumoniae BAA-255 (two-fold serial dilutions in brain-heart-infusion broth with 50 μg/ml Ca2+, 18–20 hr at 37°C, MIC = lowest concentration preventing visible growth) was above 64 µg/mL. For the same molecule, the “MIC E. faecium 7131121 VRE” value in the test with E. faecium 7131121 VRE (vancomycin-resistant clinical isolate, CLSI recommendations, 18–20 hr at 37°C, MIC = lowest concentration preventing visible growth) was above 64 µg/mL. The “MIC E. faecalis ATCC29212” value against E. faecalis ATCC29212 (setting [1]) is above 64 µg/mL. In the test with S. epidermidis NCTC11047 (setting [1]), the “MIC S. epidermidis NCTC11047” value came out at 64 µg/mL (≈ 34 µM). In addition, the “MIC E. faecium ATCC19579” value in the test with E. faecium ATCC19579 (setting [1]) is above 64 µg/mL.
Take `C=C1NC(=O)C2NC(=O)[C@H](CC(C)C)NC(=O)C(NC(=O)[C@@H]3CSC(C)C(NC(=O)[C@H](Cc4ccccc4)NC(=O)C4NC(=O)[C@@H](N)CSC4C)C(=O)N[C@@H](CC(C)C)C(=O)N4CCC[C@H]4C(=O)NCC(=O)NCC(=O)NCC(=O)N[C@@H](C)C(=O)N[C@@H](C(C)C)C(=O)N3)C(C)SC[C@H](NC(=O)[C@H](CCC(=O)O)NC1=O)C(=O)N[C@@H]([C@@H](C)CC)C(=O)NC=CSC2C` (stereo partly drawn) [G10A]: the “MIC S. aureus SH1000” value with S. aureus SH1000 (SH1000) is above 64 µg/mL. In addition, the “MIC S. aureus R33 MRSA” value in the test with S. aureus R33 MRSA (R33) is on record as 64, >64 μg/ml. In addition, the “MIC M. luteus ATCC4698” value in the test on M. luteus ATCC4698 (ATCC4698) was determined as 8 µg/mL (≈ 4.35 µM). In addition, the “MIC S. pneumoniae BAA-255” value in the test on S. pneumoniae BAA-255 (BAA-255) turned out to be 8 µg/mL (≈ 4.35 µM). The “MIC E. faecium 7131121 VRE” value with E. faecium 7131121 VRE (7131121 VRE) was above 64 µg/mL. In addition, in the test on E. faecalis ATCC29212 (ATCC29212), the “MIC E. faecalis ATCC29212” value is above 64 µg/mL. In addition, the “MIC S. epidermidis NCTC11047” value in the test with S. epidermidis NCTC11047 (NCTC11047) was 64, >64 μg/ml. Moreover, the “MIC E. faecium ATCC19579” value in the test with E. faecium ATCC19579 (ATCC19579) is above 64 µg/mL.
In the case of `C=C1NC(=O)C2NC(=O)[C@H](CC(C)C)NC(=O)C(NC(=O)[C@@H]3CSC(C)C(NC(=O)[C@H](Cc4ccccc4)NC(=O)C4NC(=O)[C@@H](N)CSC4C)C(=O)N[C@@H](CC(C)C)C(=O)N4CCC[C@H]4C(=O)NCC(=O)NCC(=O)N[C@@H](Cc4c[nH]cn4)C(=O)NCC(=O)N[C@@H](C(C)C)C(=O)N3)C(C)SC[C@H](NC(=O)[C@H](CCC(=O)O)NC1=O)C(=O)N[C@@H]([C@@H](C)CC)C(=O)NC=CSC2C` (stereo partly drawn) [G9H], the “MIC S. aureus SH1000” value against S. aureus SH1000 (SH1000) came out at 32 µg/mL (≈ 16.8 µM). The “MIC M. luteus ATCC4698” value in the test with M. luteus ATCC4698 (ATCC4698) was below 4 µg/mL. Further, the “MIC S. pneumoniae BAA-255” value against S. pneumoniae BAA-255 (BAA-255) came to 16 µg/mL (≈ 8.39 µM). The “MIC E. faecium 7131121 VRE” value against E. faecium 7131121 VRE (7131121 VRE) was above 64 µg/mL. Further, in the test with E. faecalis ATCC29212 (ATCC29212), the “MIC E. faecalis ATCC29212” value is above 64 µg/mL. Besides, the “MIC S. epidermidis NCTC11047” value against S. epidermidis NCTC11047 (NCTC11047) amounted to 32 µg/mL (≈ 16.8 µM). Also, in the test on E. faecium ATCC19579 (ATCC19579), the “MIC E. faecium ATCC19579” value was 64 µg/mL (≈ 33.6 µM).
